Measured values: article PMC8894010, “Synthesis, Carbonic Anhydrase II/IX/XII Inhibition, DFT, and Molecular Docking Studies of Hydrazide-Sulfonamide Hybrids of 4-Methylsalicyl- and Acyl-Substituted Hydrazide” (BioMed Research International, 2022)

Tests used:
CA IX = biological target: T1, CA IX (Homo sapiens, UniProt Q16790); assay: Carbonic anhydrase inhibition assay (p-nitrophenyl acetate hydrolysis, colorimetric, 348 nm); format: biochemical; settings: mean of three independent experiments ± SEM; pH 7.6; read-out: CAIX Ki (μM ± SEM)
T1 construct: His-tag; made in house
Experimental: All three isozymes, CA II, CA IX, and CA XII, were produced using the same protocol done for each. Transformation was the first step to be done in which the plasmids and the off-spark plasmids of CA II, CA IX, and CA XII were transformed into competent E. coli bacteria using the heat shock method, cells were grown in agar, then a colony was selected for further growth in LB broth, cells were collected by centrifugation according to the methods described in [25], and the plasmid was extracted according to the kit protocol using SanPrep column plasmid miniprep kit obtained from Sangon Biotech. […] Six hours later, the media were aspirated, and the fresh prepared (+10% FBS and 1% pen/strep) media were added to the cells. On the next day, the cells were inspected for their viability, and new media were used for the selection process which were DMEM, FBS, and hygromycin B using a final concentration of 200 μg/mL. The cells were grown in the selective media, and when they reached 70 to 80% confluency, the offs-park plasmid transfected cells were checked under a fluorescent microscope to insure the production of the protein; then, the cells transfected with the His-tagged plasmid were collected for making the cell lysate following the method described by by centrifugation of the cells at 2000 rpm for 5 minutes, washed with PBS, and again centrifuged; the pellet was then suspended in the cell lysis buffer, incubated in ice for 15 minutes, and centrifuged again at 10000 g at 4°C for 15 minutes, and here, the pellet was discarded and the supernatant was collected for purification using Ni-NTA Sepharose column according to the manufacturer's protocol. And the eluting solution was quantified using the protein quantification technique Biuret assay and Bradford reagent for protein quantification.
Carbonic anhydrase inhibition activity was carried out using an already developed method with slight modification. The principle of the current method is centered on that “CA hydrolyses the p-nitrophenyl acetate to p-nitrophenol” which is determined by spectrophotometrically. Reaction mixture contained 60 μL of 50 mM Tris-sulfate buffer (pH 7.6 containing 0.1 mM ZnCl2) and 10 μL (0.5 mM) test compound in 1% DMSO. […] Preparation of p-nitrophenyl acetate was done by taking 6 mM stock using <5% acetonitrile in buffer and was used fresh. Each well was filled with 20 μL solution to attain […] concentration. The total reaction volume was made to 100 μL.

CA II = CA II (Homo sapiens, UniProt P00918); assay: Carbonic anhydrase inhibition assay (p-nitrophenyl acetate hydrolysis, colorimetric, 348 nm)
Experimental: (§1) Carbonic anhydrase inhibition activity was carried out using an already developed method [19] with slight modification. The principle of the current method is centered on that “CA hydrolyses the p-nitrophenyl acetate to p-nitrophenol” which is determined by spectrophotometrically. Reaction mixture contained 60 μL of 50 mM Tris-sulfate buffer (pH 7.6 containing 0.1 mM ZnCl2) and 10 μL (0.5 mM) test compound in 1% DMSO. […] Preparation of p-nitrophenyl acetate was done by taking 6 mM stock using <5% acetonitrile in buffer and was used fresh. Each well was filled with 20 μL solution to attain 0.6 mM concentration. The total reaction volume was made to 100 μL.

CA XII = CA XII (Homo sapiens, UniProt O43570); assay: as above; settings: for CAXII % inhibition: given instead of Ki where inhibition <50%, test compound 10 μL (0.5 mM), b52 says 1.0 mM
Sequence of CA XII (O43570 25-354): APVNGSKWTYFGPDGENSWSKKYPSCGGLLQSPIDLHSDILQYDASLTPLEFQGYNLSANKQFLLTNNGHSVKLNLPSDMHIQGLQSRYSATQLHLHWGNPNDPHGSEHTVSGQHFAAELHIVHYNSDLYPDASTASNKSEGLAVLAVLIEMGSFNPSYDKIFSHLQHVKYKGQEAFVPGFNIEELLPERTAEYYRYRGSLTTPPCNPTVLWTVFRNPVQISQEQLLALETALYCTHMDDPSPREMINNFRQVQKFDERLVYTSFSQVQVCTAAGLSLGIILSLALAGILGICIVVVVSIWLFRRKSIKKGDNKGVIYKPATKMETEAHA
Experimental: as §1

SMILES | Ki (CA IX) [µM] | melting point [°C] | Ki (CA II) [nM] | Ki (CA XII) [nM] | CAXII % inhibition (CA XII) [%]
COc1ccc(S(=O)(=O)NNC(=O)c2ccc(C)cc2OC)cc1 [Compound 21, 4-Methoxy-N′-(2-methoxy-4-methylbenzoyl)benzenesulfono hydrazide] | 0.19 ± 0.02 | 159 to 162 | 610 ± 10 | 1220 ± 10 | –
Cc1ccc(S(=O)(=O)NNC(=O)c2ccc(C)cc2O)cc1 [Compound 27, N′-(2-Hydroxy-4-methylbenzoyl)-4-methylbenzenesulfonohydrazide] | 0.51 ± 0.04 | 183 to 185 | 1110 ± 40 | 430 ± 80 | –
COc1ccc(S(=O)(=O)NNC(=O)Cc2ccc(C)cc2)cc1 [Compound 30, 4-Methoxy-N′-(2-(p-tolyl)acetyl)benzenesulfonohydrazide] | 0.33 ± 0.03 | 133 to 134 | 740 ± 40 | 130 ± 10 | –
COc1cccc(CC(=O)NNS(=O)(=O)c2ccc3ccccc3c2)c1 [Compound 36, N′-(2-(3-Methoxyphenyl)acetyl)naphthalene-2-sulfonohydrazide] | 0.6 ± 0.01 | 139 to 141 | 920 ± 100 | – | 48.88
COc1cc(C)ccc1C(=O)NNS(=O)(=O)c1ccc(C)cc1 [Compound 22, N′-(2-Methoxy-4-methylbenzoyl)-4-methylbenzenesulfonohydrazide] | 1.04 ± 0.38 | 161 to 163 | 680 ± 10 | – | 42.89
COc1cccc(CC(=O)NNS(=O)(=O)c2ccc(Br)cc2)c1 [Compound 33, 4-Bromo-N′-(2-(3-methoxyphenyl)acetyl)benzenesulfonohydrazide] | 0.39 ± 0.03 | 153 to 154 | 680 ± 50 | 170 ± 10 | –
Cc1ccc(CC(=O)NNS(=O)(=O)c2ccc(Br)cc2)cc1 [Compound 29, 4-Bromo-N′-(2-(p-tolyl)acetyl)benzenesulfonohydrazide] | 0.33 ± 0.02 | 156 to 157 | 730 ± 20 | 550 ± 10 | –
Cc1ccc(C(=O)NNS(=O)(=O)c2ccc(Br)cc2)c(O)c1 [Compound 25, 4-Bromo-N′-(2-hydroxy-4-methylbenzoyl)benzenesulfonohydrazide] | 0.33 ± 0.03 | – | 910 ± 20 | 350 ± 40 | –
COc1cccc(CC(=O)NNS(=O)(=O)c2ccc(C)cc2)c1 [Compound 35, N′-(2-(3-Methoxyphenyl)acetyl)-4-methylbenzenesulfonohydrazide] | 1.18 ± 0.04 | 143 to 144 | 3200 ± 140 | 340 ± 10 | –
Cc1ccc(C(=O)NNS(=O)(=O)c2ccc([N+](=O)[O-])cc2)c(O)c1 [Compound 24, N′-(2-Hydroxy-4-methylbenzoyl)-4-nitrobenzenesulfonohydrazide] | 0.54 ± 0.06 | 211 to 213 | 340 ± 10 | 520 ± 40 | –
COc1cc(C)ccc1C(=O)NNS(=O)(=O)c1ccc([N+](=O)[O-])cc1 [Compound 19, N′-(2-Methoxy-4-methylbenzoyl)-4-nitrobenzenesulfonohydrazide] | 0.58 ± 0.04 | 220 to 222 | 680 ± 20 | – | 44.4
COc1cccc(CC(=O)NNS(=O)(=O)c2ccc([N+](=O)[O-])cc2)c1 [Compound 32, N′-(2-(3-Methoxyphenyl)acetyl)-4-nitrobenzenesulfonohydrazide] | 0.32 ± 0.01 | 158 to 159 | 670 ± 60 | – | 49.25
Cc1ccc(CC(=O)NNS(=O)(=O)c2ccc([N+](=O)[O-])cc2)cc1 [Compound 28, 4-Nitro-N′-(2-(p-tolyl)acetyl)benzenesulfonohydrazide] | 0.55 ± 0.01 | 205 to 206 | 460 ± 10 | 1020 ± 80 | –
Cc1ccc(CC(=O)NNS(=O)(=O)c2ccc(C)cc2)cc1 [Compound 31, 4-Methyl-N′-(2-(p-tolyl)acetyl)benzenesulfonohydrazide] | 0.29 ± 0.02 | 143 to 144 | 670 ± 10 | 400 ± 90 | –
COc1cc(C)ccc1C(=O)NNS(=O)(=O)c1ccc2ccccc2c1 [Compound 23, N′-(2-Methoxy-4-methylbenzoyl)naphthalene-2-sulfonohydrazide] | 0.19 ± 0.03 | 186 to 187 | 940 ± 20 | 750 ± 70 | –
COc1ccc(S(=O)(=O)NNC(=O)c2ccc(C)cc2O)cc1 [Compound 26, N′-(2-Hydroxy-4-methylbenzoyl)-4-methoxybenzenesulfono hydrazide] | 0.91 ± 0.09 | 168 to 169 | 960 ± 90 | 580 ± 40 | –
COc1cc(C)ccc1C(=O)NNS(=O)(=O)c1ccc(Br)cc1 [Compound 20, 4-Bromo-N′-(2-methoxy-4-methylbenzoyl)benzenesulfonohydrazide] | 0.56 ± 0.05 | 168 to 169 | 660 ± 40 | 990 ± 100 | –
COc1ccc(S(=O)(=O)NNC(=O)Cc2cccc(OC)c2)cc1 [Compound 34, 4-Methoxy-N′-(2-(3-methoxyphenyl)acetyl)benzenesulfonohydrazide] | 0.65 ± 0.03 | 146 to 147 | 1810 ± 30 | 220 ± 60 | –
